Laboratory results: PMC6017481, “Design, Synthesis, and Biological Evaluation of 2-(Benzylamino-2-Hydroxyalkyl)Isoindoline-1,3-Diones Derivatives as Potential Disease-Modifying Multifunctional Anti-Alzheimer Agents” (Molecules : A Journal of Synthetic Chemistry and Natural …, 2018)
Read-outs that look alike come from different tables or passages of the source.

How the values were obtained:
[1] = system: Aβ toxicity; set-up: method as in PMID 25621991; details: at 1 μM and 3 μM; cited from earlier work
[2] = system: human AChE; set-up: method as in PMID 25621991; details: cited from earlier work
[3] = system: Aβ aggregation; set-up: method as in PMID 25621991; details: at 10 μM; cited from earlier work
[4] = biological target: T1, Aβ1–42 peptide aggregation (Homo sapiens, UniProt P05067); assay: Thioflavin T-based fluorometric assay of Aβ aggregation; format: biochemical; details: read-out: Aβ-Aggr. % Inh.
T1 construct: Recombinant human HFIP-pretreated Aβ1–42 peptide; purchased Merck Millipore, Darmstadt, Germany
T1 sequence (P05067 672-713 limits assumed): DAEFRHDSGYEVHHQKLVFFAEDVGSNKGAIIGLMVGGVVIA

[5] = biological target: T2, eeAChE (AChE from Electrophorus electricus) (Electrophorus electricus, UniProt O42275); assay: biochemical; details: for inhibition at 10 µM: at 10 μM inhibitor concentration, mean ± SD, read-out: eeAChE % Inh.; for IC50: AChE from electric eel, mean ± SEM, at least three experiments
T2 construct: purchased Sigma-Aldrich
T2 sequence (O42275 24-633): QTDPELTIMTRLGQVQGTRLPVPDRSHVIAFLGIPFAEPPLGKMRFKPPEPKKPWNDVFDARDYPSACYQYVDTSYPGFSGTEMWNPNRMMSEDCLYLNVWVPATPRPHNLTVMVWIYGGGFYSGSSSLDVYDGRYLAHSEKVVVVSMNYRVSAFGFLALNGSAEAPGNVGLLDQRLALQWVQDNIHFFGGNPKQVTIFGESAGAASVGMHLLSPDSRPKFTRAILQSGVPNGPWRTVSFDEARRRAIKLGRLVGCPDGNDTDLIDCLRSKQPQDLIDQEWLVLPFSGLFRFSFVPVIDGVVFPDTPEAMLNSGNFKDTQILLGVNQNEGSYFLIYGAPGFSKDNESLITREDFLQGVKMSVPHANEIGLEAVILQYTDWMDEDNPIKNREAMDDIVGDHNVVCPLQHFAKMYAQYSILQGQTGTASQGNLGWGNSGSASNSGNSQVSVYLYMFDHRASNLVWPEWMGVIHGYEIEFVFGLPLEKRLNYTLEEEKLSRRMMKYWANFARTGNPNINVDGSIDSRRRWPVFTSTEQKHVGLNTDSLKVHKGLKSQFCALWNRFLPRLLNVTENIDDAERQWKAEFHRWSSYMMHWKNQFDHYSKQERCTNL

[6] = biological target: eqBuChE (BuChE from equine serum) (Equus caballus, UniProt P81908); assay: biochemical; details: for inhibition at 10 µM: at 10 μM inhibitor concentration, mean ± SD, read-out: eqBuChE % Inh.
Chain of eqBuChE (BuChE from equine serum) (P81908 whole entry): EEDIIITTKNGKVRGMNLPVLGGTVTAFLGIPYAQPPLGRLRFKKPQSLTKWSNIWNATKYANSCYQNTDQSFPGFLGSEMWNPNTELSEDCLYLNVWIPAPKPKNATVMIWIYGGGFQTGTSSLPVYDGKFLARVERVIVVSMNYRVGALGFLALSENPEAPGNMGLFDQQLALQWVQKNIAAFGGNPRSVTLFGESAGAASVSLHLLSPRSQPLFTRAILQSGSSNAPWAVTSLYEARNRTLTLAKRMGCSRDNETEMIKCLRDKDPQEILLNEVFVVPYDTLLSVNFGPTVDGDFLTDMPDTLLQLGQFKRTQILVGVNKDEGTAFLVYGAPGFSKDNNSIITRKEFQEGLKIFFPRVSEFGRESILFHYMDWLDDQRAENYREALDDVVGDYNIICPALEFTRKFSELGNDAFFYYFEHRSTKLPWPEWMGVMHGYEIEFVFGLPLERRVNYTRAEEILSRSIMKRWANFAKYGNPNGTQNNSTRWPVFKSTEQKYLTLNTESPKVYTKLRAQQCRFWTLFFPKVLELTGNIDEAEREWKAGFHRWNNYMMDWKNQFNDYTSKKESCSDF

[7] = biological target: T3, human recombinant BACE-1 (hBACE-1) (Homo sapiens, UniProt P56817); assay: BACE-1 FRET assay (PanVera kit); format: biochemical; details: at 50 μM inhibitor concentration; mean ± SD; read-out: hBACE-1 % Inh.
T3 construct: purchased PanVera BACE-1 FRET Assay Kit, bought from Life Technologies Polska Sp. z o.o; host or cells: baculovirus expression
T3 sequence (P56817 46-501): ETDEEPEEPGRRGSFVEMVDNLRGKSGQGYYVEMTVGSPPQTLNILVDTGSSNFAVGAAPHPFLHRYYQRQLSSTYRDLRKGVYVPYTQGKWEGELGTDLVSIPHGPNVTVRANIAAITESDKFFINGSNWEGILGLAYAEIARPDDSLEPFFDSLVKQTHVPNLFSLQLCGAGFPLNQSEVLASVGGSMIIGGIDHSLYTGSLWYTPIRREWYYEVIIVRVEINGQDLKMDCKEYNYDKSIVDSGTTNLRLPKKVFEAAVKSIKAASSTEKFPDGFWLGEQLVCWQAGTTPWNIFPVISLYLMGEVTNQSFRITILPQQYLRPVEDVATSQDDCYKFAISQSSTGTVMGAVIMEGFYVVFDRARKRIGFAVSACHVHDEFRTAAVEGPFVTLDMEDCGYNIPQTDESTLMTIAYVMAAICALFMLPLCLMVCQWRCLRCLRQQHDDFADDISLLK

[8] = at 10 μM inhibitor concentration, 1.5 μM Aβ1–42, mean ± SD

Structure (SMILES)	neuroprotective effect against Aβ toxicity [1]	IC50 [2] [µM]	anti-Aβ aggregation activity [3] [%]	inhibition at 10 µM [4] [%]	inhibition at 10 µM [5] [%]	inhibition at 10 µM [4, 8] [%]	inhibition at 10 µM [6] [%]	inhibition at 50 µM [7] [%]	IC50 [5] [µM]	IC50 ([6]; BuChE from horse serum, mean ± SEM, at least three experiments) [µM]
O=C1c2ccccc2C(=O)N1CCCCCNCc1ccc(F)cc1 [Compound III, 2-(5-(4-flurobenzylamino)pentyl)isoindoline-1,3-dione]	neuroprotective effect	0.268	66							
COc1cc2c(cc1OC)C(=O)C(CC1CCN(Cc3ccccc3)CC1)C2 (centres unmarked) [Donepezil, reference compound]				13.8						
O=C1c2ccccc2C(=O)N1CCC(O)CNCc1ccccc1 (centres unmarked) [Compound 9, 2-(4-(Benzylamino)-3-hydroxybutyl)isoindoline-1,3-dione]					< 10	< 10	< 10	< 10		
Oc1ccc(/C=C/c2cc(O)cc(O)c2)cc1 [Resveratrol, reference compound]						78.5				
O=C1c2ccccc2C(=O)N1CCCCC(O)CNCc1ccccc1 (centres unmarked) [Compound 14, 2-(6-(Benzylamino)-5-hydroxyhexyl)isoindoline-1,3-dione]						< 10	36	42.1	2.13 ± 0.07	
COc1ccccc1CNCC(O)CCCCN1C(=O)c2ccccc2C1=O (centres unmarked) [Compound 15, 2-(5-Hydroxy-6-((2-methoxybenzyl)amino)hexyl)isoindoline-1,3-dione]						< 10	36	15.7	1.95 ± 0.06	
O=C1c2ccccc2C(=O)N1CC(O)CNCc1cccc(Cl)c1 (centres unmarked) [Compound 4, 2-(3-((3-Chlorobenzyl)amino)-2-hydroxypropyl)isoindoline-1,3-dione]					< 10	< 10	24.1	34.1		
O=C1c2ccccc2C(=O)N1CC(O)CNCc1ccccc1C(F)(F)F (centres unmarked) [Compound 3, 2-(2-Hydroxy-3-((2-(trifluoromethyl)benzyl)amino)propyl)isoindoline-1,3-dione]					11.8	< 10	< 10	41.8		
O=C1c2ccccc2C(=O)N1CC(O)CNCc1ccccc1F (centres unmarked) [Compound 2, 2-(3-((2-Fluorobenzyl)amino)-2-hydroxypropyl)isoindoline-1,3-dione]					28.1	21.1	19.5	39.6		
O=C1c2ccccc2C(=O)N1CCCC(O)CNCc1ccccc1 (centres unmarked) [Compound 12, 2-(5-(Benzylamino)-4-hydroxypentyl)isoindoline-1,3-dione]						24.9	14.1	43.7	3.32 ± 0.15	
O=C1c2ccccc2C(=O)N1CC(O)CNCc1ccc(Cl)cc1Cl (centres unmarked) [Compound 8, 2-(3-((2,4-Dichlorobenzyl)amino)-2-hydroxypropyl)isoindoline-1,3-dione]					< 10	< 10	21.7	37.2		
COc1ccccc1CNCC(O)CN1C(=O)c2ccccc2C1=O (centres unmarked) [Compound 5, 2-(2-Hydroxy-3-((2-methoxybenzyl)amino)propyl)isoindoline-1,3-dione]					< 10	19.9		39.2		7.86 ± 0.29
O=C1c2ccccc2C(=O)N1CC(O)CNCc1ccccc1 (centres unmarked) [Compound 1, 2-(3-(Benzylamino)-2-hydroxypropyl)isoindoline-1,3-dione]					11.5	< 10	14.1	37.3		
COc1ccccc1CNCC(O)CCN1C(=O)c2ccccc2C1=O (centres unmarked) [Compound 10, 2-(3-Hydroxy-4-((2-methoxybenzyl)amino)butyl)isoindoline-1,3-dione]					32.7	< 10	17.8	24.4		
COc1ccc(CNCC(O)CN2C(=O)c3ccccc3C2=O)cc1 (centres unmarked) [Compound 7, 2-(2-Hydroxy-3-((4-methoxybenzyl)amino)propyl)isoindoline-1,3-dione]					< 10	< 10	19.1	35.1		
COc1ccccc1CNCC(O)CCCN1C(=O)c2ccccc2C1=O (centres unmarked) [Compound 13, 2-(4-Hydroxy-5-((2-methoxybenzyl)amino)pentyl)isoindoline-1,3-dione]						< 10	26.2	37.1	11.1 ± 0.49	
Cc1ccc(CNCC(O)CN2C(=O)c3ccccc3C2=O)cc1 (centres unmarked) [Compound 6, 2-(2-Hydroxy-3-((4-methylbenzyl)amino)propyl)isoindoline-1,3-dione]					< 10	< 10	11.6	45		
COc1ccc(CNCC(O)CCN2C(=O)c3ccccc3C2=O)cc1 (centres unmarked) [Compound 11, 2-(3-Hydroxy-4-((4-methoxybenzyl)amino)butyl)isoindoline-1,3-dione]					< 10	< 10	< 10	34.8		
